{"source": "patent US10670605B2", "about": "“Cysteine reactive probes and uses thereof” (The Scripps Research Institute, priority 2015, dated 2020)", "assay_in_all_cases": "Competitive isoTOP-ABPP in situ (fragment-treated cells)", "key": {"[1]": {"target": "T1, cysteines in MDA-MB-231 and Ramos cells (Homo sapiens, UniProt P05091)", "T1 sequence (P05091 18-517)": "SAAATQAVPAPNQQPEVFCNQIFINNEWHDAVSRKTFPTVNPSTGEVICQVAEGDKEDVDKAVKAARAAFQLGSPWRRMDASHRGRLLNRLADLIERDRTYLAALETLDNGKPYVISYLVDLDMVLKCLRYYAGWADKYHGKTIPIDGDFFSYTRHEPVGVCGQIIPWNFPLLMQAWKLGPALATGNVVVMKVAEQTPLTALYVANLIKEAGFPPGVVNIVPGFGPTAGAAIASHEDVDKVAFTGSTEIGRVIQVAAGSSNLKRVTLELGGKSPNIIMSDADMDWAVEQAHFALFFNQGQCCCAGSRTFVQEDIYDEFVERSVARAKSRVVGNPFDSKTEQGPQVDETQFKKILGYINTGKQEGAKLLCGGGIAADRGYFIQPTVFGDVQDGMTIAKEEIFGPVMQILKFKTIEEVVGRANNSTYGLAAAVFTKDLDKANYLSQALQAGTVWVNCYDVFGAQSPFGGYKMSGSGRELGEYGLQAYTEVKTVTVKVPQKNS", "assay_type": "cell-based"}, "[2]": {"target": "cysteines in MDA-MB-231 and Ramos cells (Homo sapiens, UniProt P46013)", "sequence (P46013 whole entry)": "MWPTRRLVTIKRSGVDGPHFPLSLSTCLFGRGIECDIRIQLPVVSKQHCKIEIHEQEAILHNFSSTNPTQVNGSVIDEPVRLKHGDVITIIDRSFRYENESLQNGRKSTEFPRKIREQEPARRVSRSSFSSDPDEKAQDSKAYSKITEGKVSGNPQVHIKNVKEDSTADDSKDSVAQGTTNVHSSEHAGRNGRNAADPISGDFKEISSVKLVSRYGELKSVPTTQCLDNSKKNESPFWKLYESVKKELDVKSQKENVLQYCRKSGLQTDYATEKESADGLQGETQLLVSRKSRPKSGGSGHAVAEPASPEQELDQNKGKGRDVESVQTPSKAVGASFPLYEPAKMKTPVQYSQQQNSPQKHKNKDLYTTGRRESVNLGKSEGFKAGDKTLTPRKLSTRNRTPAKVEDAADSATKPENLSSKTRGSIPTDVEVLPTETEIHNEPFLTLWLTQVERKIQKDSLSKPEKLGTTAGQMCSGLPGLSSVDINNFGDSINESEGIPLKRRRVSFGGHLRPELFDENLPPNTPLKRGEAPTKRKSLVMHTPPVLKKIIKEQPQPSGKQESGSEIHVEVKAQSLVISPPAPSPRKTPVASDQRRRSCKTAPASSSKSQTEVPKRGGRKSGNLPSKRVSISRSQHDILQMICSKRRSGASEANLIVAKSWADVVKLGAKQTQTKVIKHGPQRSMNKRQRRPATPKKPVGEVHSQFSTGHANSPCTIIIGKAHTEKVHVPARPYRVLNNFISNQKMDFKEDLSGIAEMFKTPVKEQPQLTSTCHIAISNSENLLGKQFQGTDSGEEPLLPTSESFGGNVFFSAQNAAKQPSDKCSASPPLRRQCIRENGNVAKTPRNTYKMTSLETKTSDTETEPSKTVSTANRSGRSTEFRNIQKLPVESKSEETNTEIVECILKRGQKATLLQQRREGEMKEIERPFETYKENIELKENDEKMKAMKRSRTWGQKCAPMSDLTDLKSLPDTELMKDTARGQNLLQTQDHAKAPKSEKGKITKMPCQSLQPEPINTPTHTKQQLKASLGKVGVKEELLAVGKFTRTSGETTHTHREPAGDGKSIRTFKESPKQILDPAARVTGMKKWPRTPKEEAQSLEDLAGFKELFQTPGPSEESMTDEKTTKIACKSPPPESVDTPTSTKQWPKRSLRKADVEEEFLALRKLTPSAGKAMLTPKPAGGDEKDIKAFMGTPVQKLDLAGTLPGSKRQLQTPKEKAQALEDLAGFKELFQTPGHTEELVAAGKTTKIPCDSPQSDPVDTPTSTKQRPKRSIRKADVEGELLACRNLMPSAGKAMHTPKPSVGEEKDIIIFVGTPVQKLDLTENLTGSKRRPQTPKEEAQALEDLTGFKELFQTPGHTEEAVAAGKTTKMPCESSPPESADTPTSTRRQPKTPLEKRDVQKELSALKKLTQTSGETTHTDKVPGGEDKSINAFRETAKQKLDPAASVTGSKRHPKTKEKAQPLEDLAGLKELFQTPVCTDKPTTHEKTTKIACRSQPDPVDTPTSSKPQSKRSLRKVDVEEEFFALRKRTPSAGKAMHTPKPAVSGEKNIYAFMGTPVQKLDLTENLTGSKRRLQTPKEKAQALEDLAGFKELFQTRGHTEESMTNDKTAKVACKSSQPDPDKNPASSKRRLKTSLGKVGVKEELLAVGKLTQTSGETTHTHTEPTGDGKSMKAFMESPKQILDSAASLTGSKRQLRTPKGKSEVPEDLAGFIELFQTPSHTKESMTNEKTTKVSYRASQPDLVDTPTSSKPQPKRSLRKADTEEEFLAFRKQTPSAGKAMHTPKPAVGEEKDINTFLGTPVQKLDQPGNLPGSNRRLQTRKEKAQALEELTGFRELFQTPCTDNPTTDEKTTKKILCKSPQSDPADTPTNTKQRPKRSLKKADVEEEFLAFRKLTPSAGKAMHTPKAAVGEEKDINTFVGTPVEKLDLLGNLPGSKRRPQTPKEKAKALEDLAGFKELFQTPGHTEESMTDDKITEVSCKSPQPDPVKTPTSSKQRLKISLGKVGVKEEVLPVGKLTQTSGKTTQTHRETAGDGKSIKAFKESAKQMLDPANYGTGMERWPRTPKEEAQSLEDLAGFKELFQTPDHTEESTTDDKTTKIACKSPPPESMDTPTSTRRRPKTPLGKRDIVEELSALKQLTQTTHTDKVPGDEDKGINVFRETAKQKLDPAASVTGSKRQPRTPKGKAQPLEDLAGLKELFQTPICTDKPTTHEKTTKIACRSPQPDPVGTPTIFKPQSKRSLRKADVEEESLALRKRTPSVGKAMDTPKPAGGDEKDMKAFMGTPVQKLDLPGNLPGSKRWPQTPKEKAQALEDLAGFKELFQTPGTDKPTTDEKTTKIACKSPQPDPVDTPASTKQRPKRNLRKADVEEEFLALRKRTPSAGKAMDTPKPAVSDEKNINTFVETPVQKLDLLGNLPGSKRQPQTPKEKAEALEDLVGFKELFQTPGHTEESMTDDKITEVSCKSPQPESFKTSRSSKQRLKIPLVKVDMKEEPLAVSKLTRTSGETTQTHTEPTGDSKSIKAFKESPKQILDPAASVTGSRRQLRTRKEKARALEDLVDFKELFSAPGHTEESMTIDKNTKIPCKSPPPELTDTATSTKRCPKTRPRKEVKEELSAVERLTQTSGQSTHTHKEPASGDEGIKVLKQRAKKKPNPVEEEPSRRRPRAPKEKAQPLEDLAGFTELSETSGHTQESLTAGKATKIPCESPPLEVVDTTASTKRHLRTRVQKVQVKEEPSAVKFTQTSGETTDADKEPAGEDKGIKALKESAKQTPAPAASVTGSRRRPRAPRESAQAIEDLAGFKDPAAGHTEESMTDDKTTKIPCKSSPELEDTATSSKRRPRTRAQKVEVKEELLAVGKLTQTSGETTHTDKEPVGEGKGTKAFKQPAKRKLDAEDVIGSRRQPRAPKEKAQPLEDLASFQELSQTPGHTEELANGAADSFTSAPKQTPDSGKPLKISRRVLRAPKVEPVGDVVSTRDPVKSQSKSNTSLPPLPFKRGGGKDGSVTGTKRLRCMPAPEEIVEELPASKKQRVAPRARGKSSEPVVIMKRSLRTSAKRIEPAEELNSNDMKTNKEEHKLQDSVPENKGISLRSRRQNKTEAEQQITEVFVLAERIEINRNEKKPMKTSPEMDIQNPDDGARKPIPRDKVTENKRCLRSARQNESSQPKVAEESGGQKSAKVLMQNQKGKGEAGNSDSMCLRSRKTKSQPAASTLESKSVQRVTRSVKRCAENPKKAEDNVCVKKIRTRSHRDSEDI", "assay_type": "cell-based", "settings": "200 μM, insitu"}, "[3]": {"target": "T2, cysteines in MDA-MB-231 and Ramos cells (Homo sapiens, UniProt O95833)", "T2 sequence (O95833 1-236)": "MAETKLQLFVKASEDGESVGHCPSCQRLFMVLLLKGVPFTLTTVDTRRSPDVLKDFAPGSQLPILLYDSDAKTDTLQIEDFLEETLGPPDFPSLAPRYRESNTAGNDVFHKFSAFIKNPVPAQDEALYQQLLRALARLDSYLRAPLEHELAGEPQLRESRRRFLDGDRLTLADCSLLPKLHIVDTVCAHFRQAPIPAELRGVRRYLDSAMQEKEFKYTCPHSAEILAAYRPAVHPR", "assay_type": "cell-based", "settings": "200 μM, insitu, 231"}, "[4]": {"target": "T3, cysteines in MDA-MB-231 and Ramos cells (Homo sapiens, UniProt Q9C0I1)", "T3 sequence (Q9C0I1 1-747)": "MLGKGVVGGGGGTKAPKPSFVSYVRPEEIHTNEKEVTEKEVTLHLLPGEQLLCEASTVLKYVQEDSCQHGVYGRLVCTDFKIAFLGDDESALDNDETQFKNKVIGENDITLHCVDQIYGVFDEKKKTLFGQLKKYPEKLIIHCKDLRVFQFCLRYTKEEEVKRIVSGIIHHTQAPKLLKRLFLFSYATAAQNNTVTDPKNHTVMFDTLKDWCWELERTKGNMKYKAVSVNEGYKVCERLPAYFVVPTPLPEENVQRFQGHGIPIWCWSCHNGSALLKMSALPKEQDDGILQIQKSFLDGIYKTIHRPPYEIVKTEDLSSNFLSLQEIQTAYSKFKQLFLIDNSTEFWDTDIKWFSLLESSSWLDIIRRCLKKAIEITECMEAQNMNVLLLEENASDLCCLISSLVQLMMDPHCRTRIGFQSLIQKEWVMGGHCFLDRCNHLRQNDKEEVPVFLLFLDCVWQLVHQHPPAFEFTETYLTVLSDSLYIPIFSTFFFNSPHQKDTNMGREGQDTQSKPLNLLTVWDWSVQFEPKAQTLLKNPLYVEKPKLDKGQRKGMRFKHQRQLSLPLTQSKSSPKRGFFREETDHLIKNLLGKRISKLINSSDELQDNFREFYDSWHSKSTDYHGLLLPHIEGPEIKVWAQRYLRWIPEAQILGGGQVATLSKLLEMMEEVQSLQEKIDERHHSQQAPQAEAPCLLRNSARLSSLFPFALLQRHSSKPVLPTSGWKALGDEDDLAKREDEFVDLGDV", "assay_type": "cell-based", "settings": "200 μM, insitu"}, "[5]": {"target": "cysteines in MDA-MB-231 and Ramos cells (Homo sapiens, UniProt Q9ULA0)", "assay_type": "cell-based", "settings": "200 μM, insitu"}, "[6]": {"target": "T4, cysteines in MDA-MB-231 and Ramos cells (Homo sapiens, UniProt Q8IZ73)", "T4 sequence (Q8IZ73 1-545)": "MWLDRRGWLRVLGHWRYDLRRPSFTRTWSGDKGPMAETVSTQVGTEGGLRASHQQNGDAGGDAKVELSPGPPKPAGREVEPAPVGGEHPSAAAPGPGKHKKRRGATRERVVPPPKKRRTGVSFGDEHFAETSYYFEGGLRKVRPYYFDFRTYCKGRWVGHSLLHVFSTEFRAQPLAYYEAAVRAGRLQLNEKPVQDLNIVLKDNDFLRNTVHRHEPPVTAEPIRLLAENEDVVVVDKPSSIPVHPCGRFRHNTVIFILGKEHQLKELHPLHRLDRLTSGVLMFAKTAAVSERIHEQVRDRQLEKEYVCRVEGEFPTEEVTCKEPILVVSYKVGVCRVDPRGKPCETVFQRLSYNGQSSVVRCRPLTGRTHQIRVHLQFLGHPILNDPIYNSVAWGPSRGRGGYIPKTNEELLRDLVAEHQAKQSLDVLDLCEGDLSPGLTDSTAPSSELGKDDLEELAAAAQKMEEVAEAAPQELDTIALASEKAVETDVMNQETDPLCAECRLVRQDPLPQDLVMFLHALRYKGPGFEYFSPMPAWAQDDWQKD", "assay_type": "cell-based", "settings": "200 μM, insitu"}, "[7]": {"tested_on": "cysteines in MDA-MB-231 and Ramos cells", "assay_type": "cell-based, human"}}, "note": "“Also recorded” adds a separate entry of the source."}
{"smiles": "COc1ccc(C2CC(c3cccs3)=NN2C(=O)CCl)cc1", "note": "(stereo not drawn) [compound 4]", "values": [{"measurement": "isoTOP-ABPP reactivity P05091_C319 ALDH2", "setting": "[1]; 100 μM in situ 231", "value": 20.0}]}
{"smiles": "O=C(CCl)Nc1cccc2ncccc12", "note": "[compound 51]", "values": [{"measurement": "isoTOP-ABPP ratio P46013_C903", "setting": "[2]; 231", "value": 1.1}]}
{"smiles": "CC1CCc2ccccc2N1C(=O)CCl", "note": "(stereo not drawn) [compound 45]", "values": [{"measurement": "isoTOP-ABPP ratio O95833_C22", "setting": "[3]", "value": 13.8}, {"measurement": "isoTOP-ABPP ratio P05091_C319", "setting": "[1]; 200 μM, insitu, 231", "value": 20.0}, {"measurement": "isoTOP-ABPP ratio P46013_C903", "setting": "[2]; 231", "value": 20.0}]}
{"smiles": "O=C(CCl)NC(=O)NC12CC3CC(CC(C3)C1)C2", "note": "[compound 12]", "values": [{"measurement": "isoTOP-ABPP ratio, cysteine P05091_C319", "setting": "[1]; 200 μM, insitu, 231", "value": 20.0}, {"measurement": "isoTOP-ABPP ratio, cysteine Q9C0I1_C152", "setting": "[4]; 231", "value": 20.0}]}
{"smiles": "O=C(CCl)N1CCN(S(=O)(=O)c2ccccc2F)CC1", "note": "[compound 10]", "values": [{"measurement": "isoTOP-ABPP ratio, cysteine Q9ULA0_C144", "setting": "[5]; 231", "value": 5.2}]}
{"smiles": "O=C(CCl)N1CCN(CC(=O)N2CCOCC2)CC1", "note": "[compound 29]", "values": [{"measurement": "isoTOP-ABPP ratio P05091_C319", "setting": "[1]; 200 μM, insitu, ramos", "value": 10.5}, {"measurement": "isoTOP-ABPP ratio P46013_C903", "setting": "[2]; ramos", "value": 1.6}, {"measurement": "isoTOP-ABPP ratio Q9C0I1_C152", "setting": "[4]; ramos", "value": 4.6}, {"measurement": "isoTOP-ABPP ratio Q9ULA0_C144", "setting": "[5]; ramos", "value": 1.3}]}
{"smiles": "O=C(CCl)N1CCC(Cc2ccccc2)CC1", "note": "[compound 9]", "values": [{"measurement": "isoTOP-ABPP reactivity Q9ULA0_C144 DNPEP", "setting": "[5]; 231", "value": 2.1}]}
{"smiles": "O=C(CCl)NC12CC3CC(CC(C3)C1)C2", "note": "[compound 21]", "values": [{"measurement": "isoTOP-ABPP ratio, cysteine O95833_C22", "setting": "[3]", "value": 1.0}, {"measurement": "isoTOP-ABPP ratio, cysteine Q8IZ73_C246", "setting": "[6]; 231", "value": 1.8}, {"measurement": "isoTOP-ABPP ratio, cysteine Q9C0I1_C152", "setting": "[4]; 231", "value": 0.7}, {"measurement": "isoTOP-ABPP ratio, cysteine E2QRD5_C183", "setting": "[7]; 200 μM, insitu, 231", "value": 0.8}]}
{"smiles": "Cn1cc(S(=O)(=O)N2CCOCC2)cc1C(=O)NC(=O)CCl", "note": "[compound 11]", "values": [{"measurement": "isoTOP-ABPP ratio, cysteine E2QRD5_C183", "setting": "[7]; 100 μM in situ 231", "value": 0.9}, {"measurement": "proteomic reactivity in situ (in words)", "setting": "[7]; in situ, 2 h, versus in vitro", "value": "notably devoid of activity in situ; also recorded: notably lower reactivity in situ versus in vitro"}]}
{"smiles": "O=C(CCl)NCCc1c[nH]c2ccccc12", "note": "[compound 13]", "values": [{"measurement": "isoTOP-ABPP ratio, cysteine Q9C0I1_C152", "setting": "[4]; ramos", "value": 6.5}]}
{"smiles": "Cc1ccc(C=C(C#N)C(=O)NCCN2CCOCC2)cc1", "note": "[compound 41]", "values": [{"measurement": "isoTOP-ABPP ratio P05091_C319", "setting": "[1]; 200 μM, insitu, 231", "value": 0.9}, {"measurement": "isoTOP-ABPP ratio P46013_C903", "setting": "[2]; 231", "value": 1.0}, {"measurement": "isoTOP-ABPP ratio Q9ULA0_C144", "setting": "[5]; 231", "value": 0.8}, {"measurement": "isoTOP-ABPP ratio E2QRD5_C183", "setting": "[7]; 200 μM, insitu, 231", "value": 0.5}]}
{"smiles": "C=CC(=O)Nc1cc(F)c(N2CCN(C(=O)OC(C)(C)C)CC2)c(F)c1", "note": "[compound 38]", "values": [{"measurement": "isoTOP-ABPP ratio P46013_C903", "setting": "[2]; 231", "value": 1.1}, {"measurement": "isoTOP-ABPP ratio Q8IZ73_C246", "setting": "[6]; 231", "value": 1.7}]}
{"smiles": "C=CC(=O)N(Cc1cccnc1)c1cc(C(F)(F)F)cc(C(F)(F)F)c1", "note": "[compound 31]", "values": [{"measurement": "isoTOP-ABPP ratio O95833_C22", "setting": "[3]", "value": 0.5}, {"measurement": "isoTOP-ABPP ratio Q8IZ73_C246", "setting": "[6]; 231", "value": 0.4}, {"measurement": "isoTOP-ABPP ratio Q8IZ73_C246", "setting": "[6]; ramos", "value": 1.0}, {"measurement": "isoTOP-ABPP ratio E2QRD5_C183", "setting": "[7]; 200 μM, insitu, 231", "value": 0.8}]}
